Experimental data: patent publication US20240124456A1, “AZA-ERGOLINE DERIVATIVE AND PREPARATION METHOD THEREFOR AND APPLICATION THEREOF” (SHANGHAITECH UNIVERSITY, priority 2021, published 2024)
Read-outs that look alike come from different tables or passages of the source.

How the values were obtained:
Assay type in all cases: in vivo
[1] = Pharmacokinetic properties in C57 male mice, single dose (plasma, LC-MS/MS); details: for AUC(0-inf): read-out: Area under the drug-time curve AUC0-inf; for AUC(0-t): read-out: Area under the drug-time curve AUC0-t; for MRT: read-out: Mean residence time MRTPO; for half-life: read-out: Terminal elimination half-life t1/2 (converted); for bioavailability: read-out: Bioavailability F; for Cmax: read-out: Drug peak concentration Cmax; for Tmax: read-out: Time to peak tmax
Procedure: 1. Test of the pharmacokinetic properties of compound (−)-I-10 administered to C57 male mice by single intragastric administration, intraperitoneal injection and intravenous injection
Compound (−)-I-10 was administered in a single dose in C57 male mice, and then blood samples were collected at different time points, the concentration of the compound in mouse plasma was determined by LC-MS/MS and the relevant pharmacokinetic parameters were calculated to investigate the pharmacokinetics of the compound in the mice.
27 male C57 mice were provided by Suzhou Zhaoyan Experimental Animal Co., Ltd., and the experiment was carried out according to Table 4 below.
0.030 mL of blood was taken from each animal through the orbit each time and anticoagulated with EDTA-K2, and the collection time points were: 0, 5, 15, 30 min, 1, 2, 4, 6, 8, 24 h after administration of the test substance. Blood samples were placed on ice after collection, and the plasma was separated by centrifugation within 30 minutes (centrifugation conditions: 5000 rpm, 10 minutes, 4° C.) and stored at −80° C. until analysis.
Data acquisition and control system software was Analyst 1.5.1 software (Applied Biosystem). The sample peak integration method of the spectrum was automatic integration; the ratio of the peak area of the sample to the peak area of the internal standard was used as an index, and regression was performed with the concentration of the sample. Regression method: linear regression with a weight factor of 1/X2. Pharmacokinetic parameters were analyzed using WinNonlin Professional v6.3 (Pharsight, USA) using non-compartmental models. Cmax was the measured maximum drug concentration in blood, the area under the drug concentration in blood-time curve AUC (0→t) was calculated by the trapezoidal method, and Tmax was the time to peak of the drug concentration in blood after administration. The experimental data were expressed by “mean=standard deviation” (Mean±[…], n≥3) or “mean” (Mean, n=2).

[2] = test system: C57B6 male mice; experiment: Tail suspension experiment after 5 h restraint (depression-like behavior); details: for Immobility time, tail suspension experiment: restraint for five hours
Procedure: The experimental animals were C57B6 male mice, n=8 in each group. Firstly, the C57B6 mice were induced to develop depression-related behavioral representations by restraining the mice for 5 hours, and then the effects of the compounds on their “depression-like” behaviors were determined by tail suspension and forced swimming experiments. The specific experimental procedure was as follows. First, the mice were restrained using a mouse fixator for tail vein injection. During the restraint process, all behavioral abilities of the mice were restricted under the condition of ensuring minimal pain to the mice. The mice were administered intraperitoneally once before and after restraint, respectively. After the restraint, the mice returned to the cage to recover for 30 minutes. After the 30 minutes, the mice in different groups were subjected to tail suspension or forced swimming to detect their “depression-like” behavior, respectively.
Tail suspension experiment: the tip of the tail of the mouse was fixed on the suspension rod of the iron stand by adhesive tape, and the mouse remained in the hanging position for 6 minutes. The first 2 minutes was the adaptation period, and no data collection was performed, and the time of the intermittent immobility behavior of the mouse was recorded in the next 4 minutes. The duration of this immobility state was used to measure the degree of behavioral despair in the mouse. Data statistics were carried out using Student-t-test, p<0.05 was *, p<0.01 was **, p<0.001 was ***, p<0.0001 was ****.

[3] = test system: C57B6 male mice; experiment: Morris water maze, MK801 recognition impairment model; details: for Platform exploration time / Times of crossing platform area: MK801 model; for Times of crossing platform area: probe trial
Procedure: The experimental animals were C57B6 male mice, n=8 in each group. Firstly, mice were intraperitoneally injected with 0.2 mg/kg of MK801 twice a day for ten consecutive days to establish a recognition impairment model, and control mice were intraperitoneally injected with normal saline containing the same amount of DMSO, and then the mice were subjected to the Morris water maze test.
Experimental setup: Experiments were conducted in a blue circular water reservoir with a diameter of 130 cm. The reservoir was filled with pure water about 30 cm deep. The reservoir was divided into 4 fan-shaped areas by a cross, and the escape platform (6 cm in diameter) was located in the center of one of the fan-shaped areas and was hidden 0.5 cm below the water surface. The position where the mice entered the water was fixed at the edges of the other three fan-shaped areas. The position where the mice entered the water was basically consistent with the straight-line distance of the platform.
Acquisition phase: 30 minutes before the start of the experiment, the mice were administered intraperitoneally. After the experiment started, the mouse was put into the water with its head facing the reservoir wall, and the placement position was randomly selected from one of the three starting positions in the east, west, and south, and the underwater hidden platform was located in the north quadrant. The time taken by the mouse to find the underwater platform was recorded. […] Then the above steps were repeated 2 times at another starting position. Each animal was trained three times a day for 5 consecutive days.
Probe trial: on the second day after the last acquisition phase, the platform was removed and a 60-second probe trial began. The animal was placed in the water from the opposite side of the original platform quadrant. The number of times the animal crossed the original platform location was recorded as a detection index of spatial memory. Data statistics were carried out using Student-t-test, p<0.05 was *, p<0.01 was **, p<0.001 was ***, p<0.0001 was ****.

[4] = mouse, plasma, intravenous injection 1 mg/kg
[5] = mouse, plasma, ip, intraperitoneal injection 1 mg/kg
[6] = mouse, plasma, oral administration 5 mg/kg

SMILES: CN(C)C(=O)N[C@H]1CC[C@H](CCN2CCN3c4cccc5[nH]cc(c45)C[C@H]3C2)CC1 [(−)-I-10]
- pharmacokinetic properties (in words) [1]: good pharmacokinetic properties
- Terminal elimination rate Kel ([1]; intraperitoneal injection 1 mg/kg): 0.886 h⁻¹
- Terminal elimination rate Kel ([1]; intravenous injection 1 mg/kg): 0.805 h⁻¹
- Vd ([1]; mouse, plasma, intravenous injection 1 mg/kg, read-out: Apparent volume of distribution Vdss): 4.86 L/kg
- AUC(0-inf) [1, 4]: 215 ng·h/mL
- AUC(0-t) [1, 4]: 211 ng·h/mL
- clearance ([1]; mouse, plasma, intravenous injection 1 mg/kg, read-out: Clearance CL): 77.6 mL/min/kg
- MRT [1, 4]: 62.4 min
- half-life [1, 4]: 51.7 min
- AUC(0-inf) [1, 5]: 175 ng·h/mL
- AUC(0-t) [1, 5]: 172 ng·h/mL
- bioavailability [1, 5]: 81.4%
- Cmax [1, 5]: 271 ng/mL
- MRT [1, 5]: 46.2 min
- half-life [1, 5]: 46.9 min
- Tmax [1, 5]: 5 min
- AUC(0-inf) [1, 6]: 596 ng·h/mL
- AUC(0-t) [1, 6]: 591 ng·h/mL
- bioavailability [1, 6]: 55.9%
- Cmax [1, 6]: 558 ng/mL
- MRT [1, 6]: 89.4 min
- half-life [1, 6]: 69 min
- Tmax [1, 6]: 5 min
- Terminal elimination rate Kel ([1]; oral administration 5 mg/kg): 0.604 h⁻¹
- inhibition of restraint-induced depression-like behavior (in words) ([2]; 0.4 mg/kg and 0.1 mg/kg, tail suspension and forced swimming): significantly inhibit
- Immobility time, tail suspension experiment ([2]; 0.00625 mg/kg intraperitoneal): 132.6 s
- Immobility time, tail suspension experiment ([2]; 0.025 mg/kg intraperitoneal): 101.8 s
- Immobility time, tail suspension experiment ([2]; 0.1 mg/kg intraperitoneal): 90.31 s
- Immobility time, tail suspension experiment ([2]; 0.4 mg/kg intraperitoneal): 72.66 s
- improvement of MK801-induced spatial recognition impairment (in words) ([3]; 0.1 mg/kg): significantly improve
- improvement of MK801-induced memory impairment (in words) ([3]; 0.1 mg/kg and 0.025 mg/kg): significantly improve
- Platform exploration time ([3]; fifth day, 0.00625 mg/kg): 97.94 s
- Platform exploration time ([3]; fifth day, 0.025 mg/kg): 92.23 s
- Platform exploration time ([3]; fifth day, 0.1 mg/kg): 62.86 s
- Platform exploration time ([3]; first day, 0.00625 mg/kg): 173.0 s
- Platform exploration time ([3]; first day, 0.025 mg/kg): 161.2 s
- Platform exploration time ([3]; first day, 0.1 mg/kg): 146.2 s
- Platform exploration time ([3]; fourth day, 0.00625 mg/kg): 87.77 s
- Platform exploration time ([3]; fourth day, 0.025 mg/kg): 96.66 s
- Platform exploration time ([3]; fourth day, 0.1 mg/kg): 68.62 s
- Times of crossing platform area ([3]; 0.00625 mg/kg): 2.600
- Times of crossing platform area ([3]; 0.025 mg/kg): 4.500
- Times of crossing platform area ([3]; 0.1 mg/kg): 5.800
- Platform exploration time ([3]; second day, 0.00625 mg/kg): 145.3 s
- Platform exploration time ([3]; second day, 0.025 mg/kg): 154.0 s
- Platform exploration time ([3]; second day, 0.1 mg/kg): 128.5 s
- Platform exploration time ([3]; third day, 0.00625 mg/kg): 108.1 s
- Platform exploration time ([3]; third day, 0.025 mg/kg): 96.66 s
- Platform exploration time ([3]; third day, 0.1 mg/kg): 88.38 s
